In US6437177B1, “α-hydroxy, -amino, and halo derivatives of β-sulfonyl hydroxamic acids as matrix metallopropteinases inhibitors” (priority 1997, dated 2002):

system: not given; assay: not given; conditions: not given

Question: With `COc1ccc(S(=O)(=O)CC(O)(CS(=O)(=O)c2ccc(OC)cc2)C(=O)NO)cc1` [Example 4] as the compound, how does the melting point read?
Answer: 75 to 80 °C

biological target: Stromelysin (Homo sapiens, UniProt P08254); assay: MMP inhibition, particle concentration fluorescence assay (stromelysin); type: biochemical; conditions: in vitro; fluorescein/biotin substrate; MMP buffer pH 7.5; room temperature
Description: Inhibitory activity is evaluated in one or more of the MMP enzymes (stromelysin, gelatinase, and collagenase) in vitro using particle concentration fluorescence assay. An inhibitor binds to MMP enzymes which prevents the degradation of a substrate by stromelysin, gelatinase, or coilagenase. The substrate has attached to it a fluorescein and a biotin moiety. The intact substrate then binds to an avidin-coated particle via the biotin moiety. Once the particle is washed and dried, a fluorescent signal is generated since the fluorescent group is attached to the particle. Without an inhibitor present, the substrate is degraded by MMP enzymes and the fluorescein group is removed, therefore, no fluorescent signal can be detected. Testing compounds are dissolved in DMSO to the desired concentration, then the solutions are diluted to 1:5 with MMP buffer (50 mM Tris-HCl, pH 7.5; 150 mM NaCl; 0.02% NaN3). Serial two-fold dilutions of each compound are prepared. A concentrated, activated enzyme solution is transferred into each plate of the testing compounds, and the mixture is incubated at room temperature for 15 minutes. Thawed MMP substrate is then added into all plates, and the plates are incubated in the dark for 1-3 hours at room temperature. At this point, the substrate mixture is mixed with 0.1% avidin-coated polystyrene particles. After 15 minutes, the fluorescence values are measured following filtration and washing of the beads. Ki values are then calculated.

Sequence of Stromelysin (P08254 100-477): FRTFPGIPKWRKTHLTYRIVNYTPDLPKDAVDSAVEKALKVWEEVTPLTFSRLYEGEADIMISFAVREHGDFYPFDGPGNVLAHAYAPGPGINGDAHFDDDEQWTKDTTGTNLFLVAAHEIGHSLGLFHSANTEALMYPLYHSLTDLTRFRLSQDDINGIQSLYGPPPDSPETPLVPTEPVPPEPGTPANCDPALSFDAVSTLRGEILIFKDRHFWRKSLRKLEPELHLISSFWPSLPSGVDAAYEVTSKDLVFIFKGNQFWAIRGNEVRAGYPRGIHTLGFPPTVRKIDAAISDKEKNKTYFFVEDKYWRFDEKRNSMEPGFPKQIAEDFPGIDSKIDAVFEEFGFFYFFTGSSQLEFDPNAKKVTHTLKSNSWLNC

Question: Which Ki does the source give for `COc1ccc(S(=O)(=O)CC(O)(CS(=O)(=O)c2ccc(-c3ccccc3)cc2)C(=O)NO)cc1` (racemic) [Example 1, N-Hydroxy-2-hydroxy-2-[(4-methoxybenzenesulfonyl)methyl]-3-(4-phenylbenzenesulfonyl)-propionamide] here?
Answer: 0.074 µM

Question: For `COc1ccc(S(=O)(=O)CC(O)(CS(=O)(=O)c2ccc(-c3ccccc3)cc2)C(=O)NO)cc1` (single isomer, unassigned) [Example 1, Enantiomer A, N-Hydroxy-2-hydroxy-2-[(4-methoxybenzenesulfonyl)methyl]-3-(4-phenylbenzenesulfonyl)-propionamide], which Ki is on record?
Answer: 0.021 µM

Question: For `COc1ccc(S(=O)(=O)CC(O)(CS(=O)(=O)c2ccc(-c3ccccc3)cc2)C(=O)NO)cc1` (single isomer, unassigned) [Example 1, Enantiomer B, N-Hydroxy-2-hydroxy-2-[(4-methoxybenzenesulfonyl)methyl]-3-(4-phenylbenzenesulfonyl)-propionamide], which Ki is on record?
Answer: 0.08 µM

Question: Which Ki does the source give for `COc1ccc(S(=O)(=O)CC(O)(CS(=O)(=O)c2ccc(F)cc2)C(=O)NO)cc1` (stereo not shown) [Example 2, N-Hydroxy-2-hydroxy-2-[(4-methoxybenzenesulfonyl)methyl]-3-(4-fluorobenzenesulfonyl)-propionamide] here?
Answer: 0.18 µM

Question: Which Ki does the source give for `CCCCc1ccc(S(=O)(=O)CC(O)(CS(=O)(=O)c2ccc(OC)cc2)C(=O)NO)cc1` (stereo not shown) [Example 3, N-Hydroxy-2-hydroxy-2-[(4-methoxybenzenesulfonyl)methyl]-3-(4-n-butylbenzenesulfonyl)-propionamide] here?
Answer: 0.046 µM

Question: For `COc1ccc(S(=O)(=O)CC(O)(CS(=O)(=O)c2ccc(OC)cc2)C(=O)NO)cc1` [Example 4], which Ki is on record?
Answer: 0.039 µM

Question: For `COc1ccc(S(=O)(=O)CC(O)(CNC(=O)c2ccccc2)C(=O)NO)cc1` (stereo not shown) [Example 5], which Ki is on record?
Answer: 0.24 µM

Question: Which Ki does the source give for `COc1ccc(S(=O)(=O)CC(O)(CNC(=O)C2CCCC2)C(=O)NO)cc1` (stereo not shown) [Example 6, N-Hydroxy-2-hydroxy-2-[(4-methoxybenzenesulfonyl)methyl]-3-[N-(cyclopentylcarbonyl)amino]-propionamide] here?
Answer: 0.35 µM

Question: For `COc1ccc(C(=O)NCC(O)(CS(=O)(=O)c2ccc(OC)cc2)C(=O)NO)cc1` (stereo not shown) [Example 7, N-Hydroxy-2-hydroxy-2-[(4-methoxybenzenesulfonyl)methyl]-3-(N-(4-methoxybenzenecarbonyl)amino)-propionamide], which Ki is on record?
Answer: 0.28 µM
